Test results: PMC7721589, “Synthesis and structure-activity relationships for tetrahydroisoquinoline-based inhibitors of Mycobacterium tuberculosis” (Bioorganic & Medicinal Chemistry, 2020)
In brackets after ≈: the same amount, converted by molar mass. Like-named read-outs stand apart in the source and are kept apart here.

Columns and labels:
M.tb strain H37Rv [1] = assay: MIC against M.tb H37Rv under aerobic (replicating; MABA) conditions; format: cell-based, Mycobacterium tuberculosis; conditions: for MIC: Mycobacterium tuberculosis; for MIC MABA: MIC90, Table 1
[2] = tested on: Vero green monkey-derived epithelial kidney cells; assay: Mammalian cytotoxicity in Vero cells; format: cell-based; conditions: for IC50: Chlorocebus sabaeus
M.tb strain H37Rv [3] = assay: MIC against M.tb H37Rv under non-replicating (LORA) conditions; conditions: for MIC LORA: MIC90, Table 1; for MIC (µg/mL) LORA: MIC90, Table 2
[4] = MIC90, Table 1, read-out: MIC MABA
[5] = MIC90, Table 2, read-out: MIC (µg/mL) MABA

| Molecule | MIC (M.tb strain H37Rv [1]; [4]) | IC50 ([2]; Table 1) | MIC LORA (M.tb strain H37Rv [3]) | MIC MABA (M.tb strain H37Rv [1]) | melting point | IC50 VERO ([2]; Table 1) | MIC (M.tb strain H37Rv [1]; [5]) | IC50 ([2]; Table 2) | MIC (µg/mL) LORA (M.tb strain H37Rv [3]) |
| --- | --- | --- | --- | --- | --- | --- | --- | --- | --- |
| Cc1cc(Cl)ccc1-c1ccc(NC(=O)N2CCc3c(Cc4ccccc4)ccc(N4CCN(C)CC4)c3C2)nc1 [Compound 29, 5-Benzyl-N-(5-(4-chloro-2-methylphenyl)pyridin-2-yl)-8-(4-methylpiperazin-1-yl)-3,4-dihydroisoquinoline-2(1H)-carboxamide] | 1.8 µg/mL (≈ 3.18 µM) | 11 µg/mL (≈ 19.4 µM) | 1.5 µg/mL (≈ 2.65 µM) | – | – | – | – | – | – |
| 2-((5-(2,4-Dichlorophenyl)pyridin-2-yl)methyl)-8-(4-methylpiperazin-1-yl)-1,2,3,4-tetrahydroisoquinoline [Compound 11] | – | – | 11 µg/mL | 3.6 µg/mL | – | – | – | – | – |
| COc1ccc(N2CCN(C)CC2)c2c1CCN(C(=O)Nc1ccc(-c3cncnc3)cn1)C2 [Compound 31, 5-Methoxy-8-(4-methylpiperazin-1-yl)-N-(5-(pyrimidin-5-yl)pyridin-2-yl)-3,4-dihydroisoquinoline-2(1H)-carboxamide] | > 32 µg/mL | > 32 µg/mL | >32 µg/mL | – | 236 to 239 °C | – | – | – | – |
| Cc1cc(Cl)ccc1-c1ccc(C(=O)N2CCc3cccc(N4CCN(C)CC4)c3C2)nc1 [Compound 18, (5-(4-Chloro-2-methylphenyl)pyridin-2-yl)(8-(4-methylpiperazin-1-yl)-3,4-dihydroisoquinolin-2(1H)-yl)methanone] | 11 µg/mL (≈ 23.9 µM) | 20 µg/mL (≈ 43.4 µM) | 13 µg/mL (≈ 28.2 µM) | – | 132 to 135 °C | – | – | – | – |
| CSc1ccc(N2CCN(C)CC2)c2c1CCN(Cc1ccc(-c3ccc(Cl)cc3C)cn1)C2 [Compound 14, 2-((5-(4-Chloro-2-methylphenyl)pyridin-2-yl)methyl)-8-(4-methylpiperazin-1-yl)-5-(methylthio)-1,2,3,4-tetrahydroisoquinoline] | 3.4 µg/mL (≈ 6.89 µM) | 11 µg/mL (≈ 22.3 µM) | 6.0 µg/mL (≈ 12.2 µM) | – | 65 to 68 °C | – | – | – | – |
| COc1ccc(N2CCN(C)CC2)c2c1CCN(C(=O)N1CCC(Oc3ccccc3C(F)(F)F)CC1)C2 [Compound 51, (5-Methoxy-8-(4-methylpiperazin-1-yl)-3,4-dihydroisoquinolin-2(1H)-yl)(4-(2-(trifluoromethyl)phenoxy)piperidin-1-yl)methanone] | 12 µg/mL (≈ 22.5 µM) | 24 µg/mL (≈ 45.1 µM) | 10.0 µg/mL (≈ 18.8 µM) | – | 74 to 77 °C | – | – | – | – |
| CSc1ccc(N2CCN(C)CC2)c2c1CCN(C(=O)Nc1ccc(-c3cc(C(F)(F)F)cc(C(F)(F)F)c3)cn1)C2 [Compound 39, N-(5-(3,5-Bis(trifluoromethyl)phenyl)pyridin-2-yl)-8-(4-methylpiperazin-1-yl)-5-(methylthio)-3,4-dihydroisoquinoline-2(1H)-carboxamide] | 3.6 µg/mL (≈ 5.91 µM) | 20 µg/mL (≈ 32.8 µM) | 4.0 µg/mL (≈ 6.56 µM) | – | – | – | – | – | – |
| CN1CCN(c2ccc(F)c3c2CN(Cc2ccc(-c4ccc(Cl)cc4C(F)(F)F)cn2)CC3)CC1 [Compound 17, 2-((5-(4-Chloro-2-(trifluoromethyl)phenyl)pyridin-2-yl)methyl)-5-fluoro-8-(4-methylpiperazin-1-yl)-1,2,3,4-tetrahydroisoquinoline] | 2.3 µg/mL (≈ 4.43 µM) | 11 µg/mL (≈ 21.2 µM) | 5.4 µg/mL (≈ 10.4 µM) | – | 102 to 104 °C | – | – | – | – |
| CN1CCN(c2cccc3c2CN(C(=O)Cc2ccc(-c4ccc(OC(F)(F)F)cc4)cn2)CC3)CC1 [Compound 46, 1-(8-(4-Methylpiperazin-1-yl)-3,4-dihydroisoquinolin-2(1H)-yl)-2-(5-(4-(trifluoromethoxy)phenyl)pyridin-2-yl)ethan-1-one] | 13.7 µg/mL (≈ 26.8 µM) | 20 µg/mL (≈ 39.2 µM) | 12.4 µg/mL (≈ 24.3 µM) | – | – | – | – | – | – |
| COc1ccc(N2CCN(C)CC2)c2c1CCN(C(=O)N1CCC(Oc3ccc(OC(F)(F)F)cc3)CC1)C2 [Compound 50, (5-Methoxy-8-(4-methylpiperazin-1-yl)-3,4-dihydroisoquinolin-2(1H)-yl)(4-(4-(trifluoromethoxy)phenoxy)piperidin-1-yl)methanone] | 7.6 µg/mL (≈ 13.9 µM) | 15 µg/mL (≈ 27.3 µM) | 7.0 µg/mL (≈ 12.8 µM) | – | 49 to 51 °C | – | – | – | – |
| CSc1ccc(N2CCN(C)CC2)c2c1CCN(C(=O)Nc1ccc(-c3ccc(Cl)cc3C)cn1)C2 [Compound 40, N-(5-(4-Chloro-2-methylphenyl)pyridin-2-yl)-8-(4-methylpiperazin-1-yl)-5-(methylthio)-3,4-dihydroisoquinoline-2(1H)-carboxamide] | 1.9 µg/mL (≈ 3.64 µM) | 13 µg/mL (≈ 24.9 µM) | 2.0 µg/mL (≈ 3.83 µM) | – | 111 to 114 °C | – | – | – | – |
| Cc1ccc(-c2ccc(NC(=O)N3CCc4c(Cc5ccccc5)ccc(N5CCN(C)CC5)c4C3)nc2)c(C)c1 [Compound 30, 5-Benzyl-N-(5-(2,4-dimethylphenyl)pyridin-2-yl)-8-(4-methylpiperazin-1-yl)-3,4-dihydroisoquinoline-2(1H)-carboxamide] | 2 µg/mL (≈ 3.66 µM) | 11 µg/mL (≈ 20.2 µM) | 1.9 µg/mL (≈ 3.48 µM) | – | 94 to 97 °C | – | – | – | – |
| 2-((5-(4-Chlorophenyl)pyridin-2-yl)methyl)-8-(4-methoxypiperazin-1-yl)-5-methyl-1,2,3,4-tetrahydroisoquinoline [Compound 13] | – | – | 6.1 µg/mL | 1.8 µg/mL | – | 12 µg/mL | – | – | – |
| Cc1ccc(N2CCN(C)CC2)c2c1CCN(C(=O)Nc1ccc(-c3ccc(Cl)cc3Cl)cn1)C2 [Compound 25, N-(5-(2,4-Dichlorophenyl)pyridin-2-yl)-5-methyl-8-(4-methylpiperazin-1-yl)-3,4-dihydroisoquinoline-2(1H)-carboxamide] | 1.95 µg/mL (≈ 3.82 µM) | 12 µg/mL (≈ 23.5 µM) | 1.99 µg/mL (≈ 3.9 µM) | – | – | – | – | – | – |
| COc1ccc(N2CCN(C)CC2)c2c1CCN(C(=O)Nc1ccc(-c3ccc(OC(F)(F)F)cc3)cn1)C2 [Compound 37, 5-Methoxy-8-(4-methylpiperazin-1-yl)-N-(5-(4-(trifluoromethoxy)phenyl)pyridin-2-yl)-3,4-dihydroisoquinoline-2(1H)-carboxamide] | 3.1 µg/mL (≈ 5.72 µM) | 12 µg/mL (≈ 22.2 µM) | 3.0 µg/mL (≈ 5.54 µM) | – | 196 to 198 °C | – | – | – | – |
| CN1CCN(c2ccc(F)c3c2CN(Cc2ccc(-c4ccc(F)cc4F)cn2)CC3)CC1 [Compound 16, 2-((5-(2,4-Difluorophenyl)pyridin-2-yl)methyl)-5-fluoro-8-(4-methylpiperazin-1-yl)-1,2,3,4-tetrahydroisoquinoline] | 15 µg/mL (≈ 33.1 µM) | 22 µg/mL (≈ 48.6 µM) | 21 µg/mL (≈ 46.4 µM) | – | – | – | – | – | – |
| Cc1cc(Cl)ccc1-c1ccc(CC(=O)N2CCc3cccc(N4CCN(C)CC4)c3C2)nc1 [Compound 47] | 14 µg/mL (≈ 29.5 µM) | 11 µg/mL (≈ 23.2 µM) | 19.4 µg/mL (≈ 40.8 µM) | – | 45 to 48 °C | – | – | – | – |
| Cc1cc(Cl)ccc1-c1ccc(NC(=O)N2CCc3cccc(N4CCN(C)CC4)c3C2)nc1 [Compound 24, N-(5-(4-Chloro-2-methylphenyl)pyridin-2-yl)-8-(4-methylpiperazin-1-yl)-3,4-dihydroisoquinoline-2(1H)-carboxamide] | 6.2 µg/mL (≈ 13 µM) | 11 µg/mL (≈ 23.1 µM) | 7.7 µg/mL (≈ 16.2 µM) | – | – | – | – | – | – |
| Cc1cc(Cl)ccc1-c1ccc(CN2CCc3c(C)ccc(N4CCCCC4)c3C2)nc1 [Compound 55, 2-((5-(4-Chloro-2-methylphenyl)pyridin-2-yl)methyl)-5-methyl-8-(piperidin-1-yl)-1,2,3,4-tetrahydroisoquinoline] | – | – | – | – | 96 to 98 °C | – | 2.6 µg/mL (≈ 5.83 µM) | > 32 µg/mL | – |
| Cc1cc(Cl)ccc1-c1ccc(CN2CCc3c(C)ccc(N4CCOCC4)c3C2)nc1 [Compound 53, 4-(2-((5-(4-Chloro-2-methylphenyl)pyridin-2-yl)methyl)-5-methyl-1,2,3,4-tetrahydroisoquinolin-8-yl)morpholine] | – | – | – | – | – | – | 7.8 µg/mL (≈ 17.4 µM) | > 32 µg/mL | 12 µg/mL (≈ 26.8 µM) |
| CN1CCN(c2ccc(F)c3c2CN(C(=O)Nc2ccc(-c4ccc(Cl)c(C(F)(F)F)c4)cn2)CC3)CC1 [Compound 41, N-(5-(4-Chloro-3-(trifluoromethyl)phenyl)pyridin-2-yl)-5-fluoro-8-(4-methylpiperazin-1-yl)-3,4-dihydroisoquinoline-2(1H)-carboxamide] | 1.4 µg/mL (≈ 2.55 µM) | 10 µg/mL (≈ 18.2 µM) | 2.9 µg/mL (≈ 5.29 µM) | – | – | – | – | – | – |
| Cc1cc(Cl)ccc1-c1ccc(CN2CCc3c(F)ccc(N4CCN(C)CC4)c3C2)nc1 [Compound 15, 2-((5-(4-Chloro-2-methylphenyl)pyridin-2-yl)methyl)-8-(4-methylpiperazin-1-yl)-5-fluoro-1,2,3,4-tetrahydroisoquinoline] | 3.8 µg/mL (≈ 8.17 µM) | 24 µg/mL (≈ 51.6 µM) | 6.1 µg/mL (≈ 13.1 µM) | – | – | – | – | – | – |
| CN1CCN(c2cccc3c2CN(C(=O)Cc2ccc(-c4cccc(Cl)c4)cn2)CC3)CC1 [Compound 45, 2-(5-(3-Chlorophenyl)pyridin-2-yl)-1-(8-(4-methylpiperazin-1-yl)-3,4-dihydroisoquinolin-2(1H)-yl)ethan-1-one] | 15 µg/mL (≈ 32.5 µM) | 25 µg/mL (≈ 54.2 µM) | 21.7 µg/mL (≈ 47.1 µM) | – | – | – | – | – | – |
| COc1ccc(N2CCN(C)CC2)c2c1CCN(C(=O)Nc1ccc(-c3cc(C(F)(F)F)cc(C(F)(F)F)c3)cn1)C2 [Compound 38, N-(5-(3,5-Bis(trifluoromethyl)phenyl)pyridin-2-yl)-5-methoxy-8-(4-methylpiperazin-1-yl)-3,4-dihydroisoquinoline-2(1H)-carboxamide] | 1.3 µg/mL (≈ 2.19 µM) | 10 µg/mL (≈ 16.8 µM) | – | – | 106 to 109 °C | – | – | – | – |
| CN1CCN(c2cccc3c2CN(C(=O)Cc2ccc(-c4ccccc4)cn2)CC3)CC1 [Compound 44, 1-(8-(4-Methylpiperazin-1-yl)-3,4-dihydroisoquinolin-2(1H)-yl)-2-(5-phenylpyridin-2-yl)ethan-1-one] | > 32 µg/mL | > 32 µg/mL | >32 µg/mL | – | – | – | – | – | – |
| Cc1cc(Cl)ccc1-c1ccc(CN2CCc3c(C)ccc(N4CCNCC4)c3C2)nc1 [Compound 52, 2-((5-(4-Chloro-2-methylphenyl)pyridin-2-yl)methyl)-5-methyl-8-(piperazin-1-yl)-1,2,3,4-tetrahydroisoquinoline] | – | – | – | – | – | – | 1.8 µg/mL (≈ 4.03 µM) | 12 µg/mL (≈ 26.8 µM) | 4.4 µg/mL (≈ 9.84 µM) |
